Measured values as given in PMC5119973 (Cancer Medicine, 2016).
pKd: −log10 of the molar value. Where “and” joins values, the source holds several entries; their conditions need not be identical. Identical values can stand only once.

Target: T1, LOK (Homo sapiens, UniProt O94804)
T1 construct: purchased DiscoveRx (KINOMEscan service)
Assay: KINOMEscan active-site competitive binding assay
Conditions: slash = two separate measurements

T1 sequence (O94804 whole entry): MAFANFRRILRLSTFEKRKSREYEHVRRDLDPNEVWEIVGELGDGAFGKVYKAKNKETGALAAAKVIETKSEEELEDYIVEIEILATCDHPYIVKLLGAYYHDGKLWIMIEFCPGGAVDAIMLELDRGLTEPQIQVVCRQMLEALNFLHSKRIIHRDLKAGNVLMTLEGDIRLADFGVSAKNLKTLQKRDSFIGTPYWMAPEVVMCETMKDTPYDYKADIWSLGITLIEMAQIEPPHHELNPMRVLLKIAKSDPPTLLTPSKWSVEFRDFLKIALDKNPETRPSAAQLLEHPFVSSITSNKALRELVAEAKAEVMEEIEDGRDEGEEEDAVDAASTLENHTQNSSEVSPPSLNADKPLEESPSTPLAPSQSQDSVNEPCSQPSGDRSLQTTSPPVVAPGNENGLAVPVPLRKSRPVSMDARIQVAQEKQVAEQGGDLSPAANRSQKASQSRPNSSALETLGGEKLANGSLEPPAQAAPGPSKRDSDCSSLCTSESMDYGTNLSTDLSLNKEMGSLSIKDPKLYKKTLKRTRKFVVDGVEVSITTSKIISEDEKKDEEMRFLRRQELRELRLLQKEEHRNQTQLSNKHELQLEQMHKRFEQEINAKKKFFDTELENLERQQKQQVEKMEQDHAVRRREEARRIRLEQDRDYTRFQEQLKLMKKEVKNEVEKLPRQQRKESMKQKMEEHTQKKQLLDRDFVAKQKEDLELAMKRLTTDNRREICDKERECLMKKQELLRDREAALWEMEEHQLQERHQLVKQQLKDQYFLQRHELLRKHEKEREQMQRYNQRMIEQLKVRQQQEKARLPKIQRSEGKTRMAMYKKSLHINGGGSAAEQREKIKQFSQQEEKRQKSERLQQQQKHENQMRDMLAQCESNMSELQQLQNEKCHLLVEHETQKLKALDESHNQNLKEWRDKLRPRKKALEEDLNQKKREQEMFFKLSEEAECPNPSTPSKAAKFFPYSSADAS

Q: With `CNC(=O)c1cc(Oc2ccc(NC(=O)Nc3ccc(Cl)c(C(F)(F)F)c3)c(F)c2)cc[n+]1[O-]` [M‐2] as the compound, how does the pKd read?
A: 8.03

Q: `NC(=O)c1cc(Oc2ccc(NC(=O)Nc3ccc(Cl)c(C(F)(F)F)c3)c(F)c2)cc[n+]1[O-]` [M‐5] was tested. Which pKd did it give?
A: 7.96

Q: `CNC(=O)c1cc(Oc2ccc(NC(=O)Nc3ccc(Cl)c(C(F)(F)F)c3)c(F)c2)ccn1` [Regorafenib, reference compound] was tested. Which pKd did it give?
A: 7.82 and 8.00

Target: T2, MUSK (Homo sapiens, UniProt O15146)
T2 construct: purchased DiscoveRx (KINOMEscan service)
T2 sequence (O15146 24-869): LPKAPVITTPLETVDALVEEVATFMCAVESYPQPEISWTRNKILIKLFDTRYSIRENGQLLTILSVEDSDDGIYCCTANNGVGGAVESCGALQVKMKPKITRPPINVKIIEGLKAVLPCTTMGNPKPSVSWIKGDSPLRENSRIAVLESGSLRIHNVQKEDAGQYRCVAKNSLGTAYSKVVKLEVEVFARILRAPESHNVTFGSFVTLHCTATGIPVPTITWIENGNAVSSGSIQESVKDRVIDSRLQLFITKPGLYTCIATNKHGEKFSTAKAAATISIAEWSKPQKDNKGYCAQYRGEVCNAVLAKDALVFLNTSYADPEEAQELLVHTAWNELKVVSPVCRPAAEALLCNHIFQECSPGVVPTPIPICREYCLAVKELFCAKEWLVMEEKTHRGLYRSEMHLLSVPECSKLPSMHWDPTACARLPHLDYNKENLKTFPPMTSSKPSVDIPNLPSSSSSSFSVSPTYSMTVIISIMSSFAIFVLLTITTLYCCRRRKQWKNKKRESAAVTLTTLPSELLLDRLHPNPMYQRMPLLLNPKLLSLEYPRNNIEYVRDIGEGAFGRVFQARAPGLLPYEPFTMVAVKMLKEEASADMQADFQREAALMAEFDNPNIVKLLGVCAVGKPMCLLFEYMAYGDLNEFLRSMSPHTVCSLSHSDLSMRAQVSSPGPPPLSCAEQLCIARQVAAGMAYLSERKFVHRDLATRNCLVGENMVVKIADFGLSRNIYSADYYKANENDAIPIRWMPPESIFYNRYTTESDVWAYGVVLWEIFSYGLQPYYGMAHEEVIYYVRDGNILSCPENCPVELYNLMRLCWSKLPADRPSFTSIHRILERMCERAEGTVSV
Assay: KINOMEscan active-site competitive binding assay
Conditions: slash = two separate measurements

Q: `CNC(=O)c1cc(Oc2ccc(NC(=O)Nc3ccc(Cl)c(C(F)(F)F)c3)c(F)c2)cc[n+]1[O-]` [M‐2] was tested. Which pKd did it give?
A: 6.85

Q: `NC(=O)c1cc(Oc2ccc(NC(=O)Nc3ccc(Cl)c(C(F)(F)F)c3)c(F)c2)cc[n+]1[O-]` [M‐5] was tested. Which pKd did it give?
A: 6.85

Q: How did the pKd turn out when `CNC(=O)c1cc(Oc2ccc(NC(=O)Nc3ccc(Cl)c(C(F)(F)F)c3)c(F)c2)ccn1` [Regorafenib, reference compound] was run?
A: 7.17

Target: T3, CDK8 (Homo sapiens, UniProt P49336)
T3 construct: purchased DiscoveRx (KINOMEscan service)
T3 sequence (P49336 whole entry): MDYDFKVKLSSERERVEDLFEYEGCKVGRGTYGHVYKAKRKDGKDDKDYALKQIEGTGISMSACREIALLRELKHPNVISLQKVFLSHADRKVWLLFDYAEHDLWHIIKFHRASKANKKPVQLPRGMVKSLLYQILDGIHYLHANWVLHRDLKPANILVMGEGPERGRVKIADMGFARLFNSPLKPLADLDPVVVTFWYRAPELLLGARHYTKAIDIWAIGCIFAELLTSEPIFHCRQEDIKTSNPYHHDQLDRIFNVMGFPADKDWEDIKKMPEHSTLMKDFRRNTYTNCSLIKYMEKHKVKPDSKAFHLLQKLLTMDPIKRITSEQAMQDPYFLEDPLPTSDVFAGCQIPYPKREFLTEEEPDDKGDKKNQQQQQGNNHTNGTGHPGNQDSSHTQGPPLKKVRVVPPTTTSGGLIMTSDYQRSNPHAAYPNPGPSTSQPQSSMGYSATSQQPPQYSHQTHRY
Assay: KINOMEscan active-site competitive binding assay
Conditions: slash = two separate measurements

Q: With `CNC(=O)c1cc(Oc2ccc(NC(=O)Nc3ccc(Cl)c(C(F)(F)F)c3)c(F)c2)cc[n+]1[O-]` [M‐2] as the compound, how does the pKd read?
A: 7.37

Q: With `NC(=O)c1cc(Oc2ccc(NC(=O)Nc3ccc(Cl)c(C(F)(F)F)c3)c(F)c2)cc[n+]1[O-]` [M‐5] as the compound, how does the pKd read?
A: 6.85

Q: `CNC(=O)c1cc(Oc2ccc(NC(=O)Nc3ccc(Cl)c(C(F)(F)F)c3)c(F)c2)ccn1` [Regorafenib, reference compound] was tested. Which pKd did it give?
A: 7.00 and 7.14

Target: T4, ERK8 (Homo sapiens, UniProt Q8TD08)
T4 construct: purchased DiscoveRx (KINOMEscan service)
T4 sequence (Q8TD08 1-544): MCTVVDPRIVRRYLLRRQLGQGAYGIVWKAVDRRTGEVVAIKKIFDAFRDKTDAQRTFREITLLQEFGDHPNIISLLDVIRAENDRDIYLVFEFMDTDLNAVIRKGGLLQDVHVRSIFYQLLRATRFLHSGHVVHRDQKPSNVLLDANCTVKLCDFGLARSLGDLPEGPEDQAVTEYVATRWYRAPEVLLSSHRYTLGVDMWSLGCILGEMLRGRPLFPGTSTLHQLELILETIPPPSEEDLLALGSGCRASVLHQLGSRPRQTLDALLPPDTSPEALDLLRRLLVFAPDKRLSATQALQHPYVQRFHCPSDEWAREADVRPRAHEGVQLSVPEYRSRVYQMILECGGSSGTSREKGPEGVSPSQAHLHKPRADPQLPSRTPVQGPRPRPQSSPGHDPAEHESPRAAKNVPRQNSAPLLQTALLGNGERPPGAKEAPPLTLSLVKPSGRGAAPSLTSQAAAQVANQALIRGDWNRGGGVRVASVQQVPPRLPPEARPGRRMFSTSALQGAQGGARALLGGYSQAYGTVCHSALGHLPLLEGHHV
Assay: KINOMEscan active-site competitive binding assay
Conditions: slash = two separate measurements

Q: With `CNC(=O)c1cc(Oc2ccc(NC(=O)Nc3ccc(Cl)c(C(F)(F)F)c3)c(F)c2)cc[n+]1[O-]` [M‐2] as the compound, how does the pKd read?
A: 7.80

Q: How did the pKd turn out when `NC(=O)c1cc(Oc2ccc(NC(=O)Nc3ccc(Cl)c(C(F)(F)F)c3)c(F)c2)cc[n+]1[O-]` [M‐5] was run?
A: 7.59

Q: With `CNC(=O)c1cc(Oc2ccc(NC(=O)Nc3ccc(Cl)c(C(F)(F)F)c3)c(F)c2)ccn1` [Regorafenib, reference compound] as the compound, how does the pKd read?
A: 7.60 and 7.77

Target: T5, YSK4 (Homo sapiens, UniProt Q56UN5)
T5 construct: purchased DiscoveRx
T5 sequence (Q56UN5 1-1328): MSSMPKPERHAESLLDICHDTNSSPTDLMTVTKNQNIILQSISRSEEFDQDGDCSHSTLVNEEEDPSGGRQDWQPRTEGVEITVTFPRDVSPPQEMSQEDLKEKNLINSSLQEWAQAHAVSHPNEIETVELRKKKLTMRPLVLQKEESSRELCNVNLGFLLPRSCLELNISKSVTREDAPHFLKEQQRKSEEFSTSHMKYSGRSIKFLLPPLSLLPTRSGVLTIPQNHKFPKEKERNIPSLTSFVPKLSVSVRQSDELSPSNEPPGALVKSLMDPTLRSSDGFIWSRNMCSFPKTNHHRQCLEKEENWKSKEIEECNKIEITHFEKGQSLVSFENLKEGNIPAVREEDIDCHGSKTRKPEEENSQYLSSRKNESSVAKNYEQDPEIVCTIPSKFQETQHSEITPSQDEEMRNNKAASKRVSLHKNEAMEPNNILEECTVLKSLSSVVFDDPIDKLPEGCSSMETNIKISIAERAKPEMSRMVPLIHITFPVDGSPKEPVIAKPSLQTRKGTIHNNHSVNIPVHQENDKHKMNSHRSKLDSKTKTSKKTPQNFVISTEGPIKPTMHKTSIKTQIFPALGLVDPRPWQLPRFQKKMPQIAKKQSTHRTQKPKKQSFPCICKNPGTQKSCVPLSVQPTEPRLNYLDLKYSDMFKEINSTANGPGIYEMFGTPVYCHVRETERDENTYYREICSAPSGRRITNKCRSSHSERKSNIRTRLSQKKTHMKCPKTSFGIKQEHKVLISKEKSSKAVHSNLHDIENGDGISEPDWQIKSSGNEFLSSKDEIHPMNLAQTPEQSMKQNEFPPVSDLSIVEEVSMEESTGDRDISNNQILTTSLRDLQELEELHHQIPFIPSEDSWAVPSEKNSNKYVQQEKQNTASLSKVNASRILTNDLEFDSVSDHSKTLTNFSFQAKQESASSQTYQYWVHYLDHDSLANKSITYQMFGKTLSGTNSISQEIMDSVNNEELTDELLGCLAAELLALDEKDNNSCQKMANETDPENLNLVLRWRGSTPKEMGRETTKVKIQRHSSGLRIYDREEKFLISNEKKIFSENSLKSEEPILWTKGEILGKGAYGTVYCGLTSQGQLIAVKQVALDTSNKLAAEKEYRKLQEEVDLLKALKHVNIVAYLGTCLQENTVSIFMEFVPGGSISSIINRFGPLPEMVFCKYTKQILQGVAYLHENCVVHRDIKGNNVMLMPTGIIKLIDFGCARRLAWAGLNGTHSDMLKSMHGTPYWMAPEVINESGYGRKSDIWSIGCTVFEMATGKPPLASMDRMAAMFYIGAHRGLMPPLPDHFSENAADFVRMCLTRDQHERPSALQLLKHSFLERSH
Assay: KINOMEscan active-site competitive binding assay
Conditions: slash = two separate measurements

Q: With `CNC(=O)c1cc(Oc2ccc(NC(=O)Nc3ccc(Cl)c(C(F)(F)F)c3)c(F)c2)cc[n+]1[O-]` [M‐2] as the compound, how does the pKd read?
A: 7.26

Q: How did the pKd turn out when `NC(=O)c1cc(Oc2ccc(NC(=O)Nc3ccc(Cl)c(C(F)(F)F)c3)c(F)c2)cc[n+]1[O-]` [M‐5] was run?
A: 7.15

Q: `CNC(=O)c1cc(Oc2ccc(NC(=O)Nc3ccc(Cl)c(C(F)(F)F)c3)c(F)c2)ccn1` [Regorafenib, reference compound] was tested. Which pKd did it give?
A: 7.42 and 7.03

Target: T6, TRKC (Homo sapiens, UniProt Q16288)
T6 construct: purchased DiscoveRx
T6 sequence (Q16288 32-839): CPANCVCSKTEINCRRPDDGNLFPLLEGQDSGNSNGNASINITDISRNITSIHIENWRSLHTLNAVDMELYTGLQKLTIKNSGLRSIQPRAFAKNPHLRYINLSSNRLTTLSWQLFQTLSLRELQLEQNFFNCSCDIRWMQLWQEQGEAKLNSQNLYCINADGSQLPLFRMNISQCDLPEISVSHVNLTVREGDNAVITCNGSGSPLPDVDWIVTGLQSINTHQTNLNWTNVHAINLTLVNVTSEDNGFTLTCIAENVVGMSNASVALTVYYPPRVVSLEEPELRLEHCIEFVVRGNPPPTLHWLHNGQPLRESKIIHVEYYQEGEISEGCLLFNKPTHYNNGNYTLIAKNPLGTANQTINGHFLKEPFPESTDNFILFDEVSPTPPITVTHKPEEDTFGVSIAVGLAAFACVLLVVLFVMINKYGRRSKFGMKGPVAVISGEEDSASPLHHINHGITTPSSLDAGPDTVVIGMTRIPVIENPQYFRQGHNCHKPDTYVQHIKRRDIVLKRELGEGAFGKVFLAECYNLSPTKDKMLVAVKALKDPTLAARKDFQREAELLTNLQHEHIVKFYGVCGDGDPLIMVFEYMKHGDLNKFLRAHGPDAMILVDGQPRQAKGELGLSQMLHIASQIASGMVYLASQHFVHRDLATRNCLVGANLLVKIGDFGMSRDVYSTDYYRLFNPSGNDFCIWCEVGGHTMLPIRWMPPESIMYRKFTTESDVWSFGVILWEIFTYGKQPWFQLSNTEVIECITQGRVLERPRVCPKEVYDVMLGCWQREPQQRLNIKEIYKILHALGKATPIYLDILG
Assay: KINOMEscan active-site competitive binding assay
Conditions: slash = two separate measurements

Q: `CNC(=O)c1cc(Oc2ccc(NC(=O)Nc3ccc(Cl)c(C(F)(F)F)c3)c(F)c2)cc[n+]1[O-]` [M‐2] was tested. Which pKd did it give?
A: 7.82

Q: How did the pKd turn out when `NC(=O)c1cc(Oc2ccc(NC(=O)Nc3ccc(Cl)c(C(F)(F)F)c3)c(F)c2)cc[n+]1[O-]` [M‐5] was run?
A: 7.25

Q: `CNC(=O)c1cc(Oc2ccc(NC(=O)Nc3ccc(Cl)c(C(F)(F)F)c3)c(F)c2)ccn1` [Regorafenib, reference compound] was tested. Which pKd did it give?
A: 6.74 and 6.55
